Experimental data taken from US12617773B2, “Azetidin-3-ylmethanol derivatives as CCR6 receptor modulators” (Idorsia Pharmaceuticals Ltd, priority 2020, dated 2026).

Each compound was assayed against T1, human CCR6 (Homo sapiens, UniProt P51684) (assay: FLIPR assay (inhibition of CCL20-induced calcium signal)). Details: HEK-293 cells expressing human CCR6; mean values where determined several times; read-out: FLIPR IC50.
T1 construct: expressed in transfected cells; host or cells: HEK-293
T1 sequence (P51684 1-374): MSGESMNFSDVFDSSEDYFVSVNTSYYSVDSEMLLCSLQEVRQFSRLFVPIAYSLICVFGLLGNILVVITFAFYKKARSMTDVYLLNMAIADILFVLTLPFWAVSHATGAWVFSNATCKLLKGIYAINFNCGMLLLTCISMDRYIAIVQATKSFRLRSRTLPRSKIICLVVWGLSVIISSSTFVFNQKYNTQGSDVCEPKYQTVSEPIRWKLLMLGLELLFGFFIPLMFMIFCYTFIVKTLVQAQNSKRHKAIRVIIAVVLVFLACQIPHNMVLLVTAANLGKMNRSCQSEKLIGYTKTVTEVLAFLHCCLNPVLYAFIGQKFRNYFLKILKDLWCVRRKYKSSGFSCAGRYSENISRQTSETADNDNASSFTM
Format: cell-based
In short: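 Dye-loaded HEK-293 cells expressing human CCR6 were preincubated with compound for 30 min at room temperature in the dark, then challenged with 10 nM CCL20 (final). Fluorescence was tracked on FLIPR, and baseline-subtracted peak emission over base after agonist addition gave inhibition dose-response curves for IC50.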
Compound `CC(C)c1ccc([C@](O)(c2cncc(C3CCC(O)CC3)c2)C2(C)CN(C)C2)cc1` (stereo partly drawn) [Example 425, 4-{5-[(R)-(1,3-Dimethyl-azetidin-3-yl)-hydroxy-(4-isopropyl-phenyl)-methyl]-pyridin-3-yl}-cyclohexanol] has an IC50 of 1730 nM.
Compound `CC(C)c1ccc([C@](O)(c2cncc(COC3CCCC3)c2)C2(C)CN(C)C2)cc1` [Example 426, (R)-(5-Cyclopentyloxymethyl-pyridin-3-yl)-(1,3-dimethyl-azetidin-3-yl)-(4-isopropyl-phenyl)-methanol] has an IC50 of 17.7 nM.
`CC(=O)N1CCC(OCc2cncc([C@@](O)(c3ccc(C(C)C)cc3)C3(C)CN(C)C3)c2)CC1` [Example 427] showed an IC50 of 292 nM.
`CC(C)c1ccc([C@](O)(c2cnnc(C3CCOCC3)c2)C2(C)CN(C)C2)cc1` [Example 428, (R)-(1,3-Dimethyl-azetidin-3-yl)-(4-isopropyl-phenyl)-[6-(tetrahydro-pyran-4-yl)-pyridazin-4-yl]-methanol] gave an IC50 of 598 nM.
`CC(C)c1ccc([C@](O)(c2cnnc(CCC(C)(O)c3ccccc3)c2)C2(C)CN(C)C2)cc1` (stereo partly drawn) [Example 429, 4-{5-[(R)-(1,3-Dimethyl-azetidin-3-yl)-hydroxy-(4-isopropyl-phenyl)-methyl]-pyridazin-3-yl}-2-phenyl-butan-2-ol] showed an IC50 of 103 nM.
`CC(C)c1ccc([C@](O)(c2cnnc(O[C@H]3CCOC3)c2)C2(C)CN(C)C2)cc1` [Example 430, (R)-(1,3-Dimethyl-azetidin-3-yl)-(4-isopropyl-phenyl)-{6-[(S)-(tetrahydro-furan-3-yl)oxy]-pyridazin-4-yl}-methanol] gave an IC50 of 209 nM.
With `CC(C)c1ccc([C@](O)(c2cnnc(O[C@@H]3CCOC3)c2)C2(C)CN(C)C2)cc1` [Example 431, (R)-(1,3-Dimethyl-azetidin-3-yl)-(4-isopropyl-phenyl)-{6-[(R)-(tetrahydro-furan-3-yl)oxy]-pyridazin-4-yl}-methanol] the IC50 was 197 nM.
`CC1CC(=O)N(c2cc([C@@](O)(c3ccc(C(C)C)cc3)C3(C)CN(C)C3)cnn2)C1` (some centres unmarked) [Example 432] was tested, and the IC50 was 146 nM.
`CC(C)c1ccc([C@](O)(c2cnnc(N3CCC(C(C)C)C3=O)c2)C2(C)CN(C)C2)cc1` (some centres unmarked) [Example 433] gave an IC50 of 58.5 nM.
Work on `CC(C)c1ccc([C@](O)(c2cnnc(N3CCC(C)(C)C3=O)c2)C2(C)CN(C)C2)cc1` [Example 434] yielded an IC50 of 147 nM.
With `CC(C)c1ccc([C@](O)(c2cnnc(N3CC(C)(C)CC3=O)c2)C2(C)CN(C)C2)cc1` [Example 435] the IC50 was 175 nM.
`CC(C)c1ccc([C@](O)(c2cnnc(N3CC(C(F)(F)F)CC3=O)c2)C2(C)CN(C)C2)cc1` (some centres unmarked) [Example 437] was tested, and the IC50 was 95.2 nM.
With `CC(C)c1ccc([C@](O)(c2cnnc(N3CC(C4CC4)CC3=O)c2)C2(C)CN(C)C2)cc1` (some centres unmarked) [Example 438] the IC50 was 53.6 nM.
Work on `CC(C)c1ccc([C@](O)(c2cnnc(N3CC4(CCOCC4)CC3=O)c2)C2(C)CN(C)C2)cc1` [Example 439] yielded an IC50 of 265 nM.
For `CC(C)c1ccc([C@](O)(c2cnnc(N3CC4(CCCCC4)OC3=O)c2)C2(C)CN(C)C2)cc1` [Example 440], the IC50 was 50.7 nM.
`CC(C)c1ccc([C@](O)(c2cnnc(N3CC(c4ccccn4)CC3=O)c2)C2(C)CN(C)C2)cc1` (some centres unmarked) [Example 441] was tested, and the IC50 was 118 nM.
For `COCCC1CCN(c2cc([C@@](O)(c3ccc(C(C)C)cc3)C3(C)CN(C)C3)cnn2)C1=O` (some centres unmarked) [Example 442], the IC50 was 177 nM.
`CC(C)c1ccc([C@](O)(c2cnnc(N3CC(c4ccccc4)CC3=O)c2)C2(C)CN(C)C2)cc1` (some centres unmarked) [Example 443] showed an IC50 of 35.3 nM.
`CC(C)c1ccc([C@](O)(c2cnnc(N3Cc4ccccc4C3=O)c2)C2(C)CN(C)C2)cc1` [Example 444] was tested, and the IC50 was 33.4 nM.
`CC(C)c1ccc([C@](O)(c2cncc(-c3noc(C(C)(C)O)n3)c2)C2(F)CN(C)C2)cc1` [Example 445, 2-(3-{5-[(S)-(3-Fluoro-1-methyl-azetidin-3-yl)-hydroxy-(4-isopropyl-phenyl)-methyl]-pyridin-3-yl}-[1,2,4]oxadiazol-5-yl)-propan-2-ol] showed an IC50 of 44.8 nM.
